According to patent publication US11730743B2, “Protection of cells from degeneration and treatment of geographic atrophy” (University of Kentucky Research Foundation, priority 2012, dated 2023):

How the values were obtained:
IL18 = IL18 mRNA by real-time RT-PCR in human RPE cells; assay type: cell-based
NLRP3 = NLRP3 mRNA by real-time RT-PCR in human RPE cells; assay type: cell-based
Source text: mRNA abundance. Transcript abundance was quantified by real-time RT-PCR using an Applied Biosystems 7900 HT Fast Real-Time PCR system using the 2^−ΔΔct method.
Real-time PCR. Total RNA was extracted from tissues or cells using Trizol reagent (Invitrogen) according to manufacturer's recommendations, DNase treated and reverse transcribed (QuantiTect, Qiagen). The RT products (cDNA) were amplified by real-time quantitative PCR (Applied Biosystems 7900 HT Fast Real-Time PCR system) with Power SYBR green Master Mix. Oligonucleotide primers specific for human IL1B, human NLRP3, human 18S rRNA, mouse Myd88, mouse Nlrp3, mouse 1118, and mouse 18S rRNA were used. The QPCR cycling conditions were 50° C. for 2 min, 95° C. for 10 min followed by 40 cycles of a two-step amplification program (95° C. for 15 s and 58° C. for 1 min). At the end of the amplification, melting curve analysis was applied using the dissociation protocol from the Sequence Detection system to exclude contamination with unspecific PCR products. […] For negative controls, no RT products were used as templates in the QPCR and verified by the absence of gel-detected bands. Relative expressions of target genes were determined by the 2^−ΔΔct method.

wild-type mice = test: Alu RNA- or pAlu-induced RPE degeneration after subretinal injection (fundus photographs, ZO-1 flat mounts); assay type: in vivo; conditions: subretinal pAlu, test agent intravitreous
Method: Subretinal injection and imaging. Subretinal injections (1 μL) in mice were performed using a Pico-Injector (PLI-100, Harvard Apparatus). In vivo transfection of plasmids was achieved using 10% Neuroporter (Genlantis). Fundus imaging was performed on a TRC-50 IX camera (Topcon) linked to a digital imaging system (Sony). Immunolabeling of RPE flat mounts was performed using antibodies against human zonula occludens-1 (Invitrogen).
Fundus photography. Retinal photographs of dilated mouse eyes were taken with a TRC-50 IX camera (Topcon) linked to a digital imaging system (Sony).
Immunolabeling. Human eyes fixed in 2-4% paraformaldehyde were prepared as eyecups, cryoprotected in 30% sucrose, embedded in optimal cutting temperature compound (Tissue-Tek OCT; Sakura Finetek), and cryosectioned into 10 μm sections. Depigmentation was achieved using 0.25% potassium permanganate and 0.1% oxalic acid. Immunohistochemical staining was performed with the rabbit antibody against NLRP3 (1:100, Sigma Aldrich) or rabbit antibody against Caspase-1 (prediluted, AbCam). Isotype IgG was substituted for the primary antibody to assess the specificity of the staining. Bound antibody was detected with biotin-conjugated secondary antibodies, followed by incubation with ABC reagent and visualized by Vector Blue (Vector Laboratories). Levamisole (Vector Laboratories) was used to block endogenous alkaline phosphatase activity. Slides were washed in PBS, counterstained with neutral red (Fisher Scientific), rinsed with deionized water, air dried, and then mounted in Vectamount (Vector Laboratories). Fluorescent labeling of human tissue was performed with the rabbit antibody against PYCARD (1:50, Clone N-15, Santa Cruz Biotechnology). Immunolabeling was visualized by fluorescently conjugated anti-rabbit secondary antibody (Invitrogen). Tissue autofluorescence was quenched by incubating the sections in 0.3% Sudan black (Fisher Scientific). Sections were mounted in Vectashield with DAPI (Vector Laboratories). Mouse RPE/choroid flat mounts were fixed with 4% paraformaldehyde or 100% methanol, stained with rabbit antibodies against human zonula occludens-1 (1:100, Invitrogen) and visualized with Alexa594 (Invitrogen). All images were obtained using the Leica SP-5 or Zeiss Axio Observer Z1 microscopes.
Subretinal injection. Subretinal injections (1 μL) in mice were performed using a Pico-Injector (PLI-100, Harvard Apparatus). In vivo transfection of plasmids coding for two different Alu sequences (pAlu) or empty control vector (pNull) (Bennett et al., 2008; Kaneko et al., 2011; Shaikh et al., 1997) was achieved using 10% Neuroporter (Genlantis). AAV1-BEST1-Cre (Alexander and Hauswirth, 2008) or AAV1-BEST1-GFP were injected at […] pfu/mL and in vitro transcribed Alu RNA was injected at 0.3 mg/mL.
Drug treatments. siRNAs formulated in siRNA buffer (20 mM KCL, 0.2 mM MgCl2 in HEPES buffer at pH 7.5; Dharmacon) or phosphate buffered saline (PBS; Sigma-Aldrich); the TLR4 antagonist Ultra Pure Rhodobacter sphaeroides LPS (LPS-RS, InvivoGen), a peptide inhibitor of MyD88 homodimerization IMG-2005 (IMGENEX), control inhibitor (IMGENEX), recombinant IL-18 (Medical & Biological Laboratories), neutralizing rat antibodies against mouse IL-1β (IMGENEX), neutralizing rat antibodies against mouse IL-18 (Medical & Biological Laboratories), isotype control IgGs (R&D Systems or eBioscience as appropriate), Caspase-1 inhibitor Z-WEHD-FMK (R&D Systems), Caspase-3 inhibitor Z-DEVD-FMK (R&D Systems), Caspase control inhibitor Z-FA-FMK (R&D Systems), (2R,4R)-APDC (Enzo Life Sciences), Glipizide (Sigma-Aldrich), Glyburide (Sigma-Aldrich), and P2X7 receptor antagonist A438079 (Tocris Bioscience) were dissolved in phosphate buffered saline (PBS; Sigma-Aldrich) or dimethyl sulfoxide (DMSO; Sigma-Aldrich), and injected into the vitreous humor in a total volume of 1 μL with a 33-gauge Exmire microsyringe (Ito Corporation). […]

N[C@@]1(C(=O)O)CN[C@@H](C(=O)O)C1 [APDC, (2R,4R)-APDC]
blocked: pAlu-induced IL18 mRNA upregulation (IL18) | pAlu-induced NLRP3 mRNA upregulation (NLRP3) | pAlu-induced RPE degeneration (wild-type mice)
